Laboratory results taken from patent US11845747B2, “Ester and carbonate pyrimidine compounds as JAK kinase inhibitors” (priority 2019, dated 2023).

Columns and labels:
in vitro = in vitro ADME; settings: human, microsomes, pH 7.4
Procedure: Assay 3: Human Liver Microsome Assay The objective of this assay was to assess the metabolic stability of test compounds in an in vitro human liver sub-fraction. Human liver microsomes obtained from Bioreclamation-IVT (Baltimore, Md.) were thawed on ice and diluted into 0.1M potassium phosphate buffer pH 7.4 to yield final incubation protein concentrations of 0.1 mg/mL. Test compounds (10 mM) were diluted into NADPH cofactor to yield final incubation concentrations of 0.1 μM test compound and 1 mM NADPH. Incubations were conducted at 37° C. temperature and test aliquots were taken at time points 0, 5, 8, 15, 30 and 45 minutes. […] The resulting samples were injected onto an LC-MS/MS system for analysis. For each incubation, the peak area of the analytes in each t0 aliquot was set to 100% and the peak areas from subsequent time point aliquots were converted to percentage of parent compound remaining relative to t0. The percentage of parent compound remaining was converted to natural log scale and plotted versus time in minutes. A linear regression analysis was performed for the initial decline of the parent disappearance profile and a formula for the best-fit line determined. The slope of the resultant line was normalized to protein concentration in mg/mL protein or number of cells/mL and CLint was calculated as follows for liver microsomes: CLint(μL·min^−1·mg^−1)=(Slope×1000)/[protein, mg/mL]

Caco-2 cell monolayers = assay: Caco-2 permeation assay; assay type: in vitro ADME; settings: A to B, 5 μM compound, with Verapamil 25 μM, 120 minutes
Procedure: Assay 8: Caco-2 Permeation Assay The Caco-2 permeation assay was used as an indication of skin permeability. The assay measures the rate at which test compounds in solution permeate a cell monolayer (designed to mimic the tight junction of human small intestinal monolayers). CacoReady 24-well transwell plates were obtained from […], Calif.). The compounds were evaluated at a concentration of 5 μM from 10 mM DMSO stock solutions in duplicate (n=2). The passive permeability of the compounds tested was evaluated using Caco-2 cell monolayers along with Verapamil (25 μM) to inhibit P-gp transport proteins in the apical to basolateral (A-B) direction. The experiment was conducted in a 37° C., 5% CO2 incubator. Caco-2 culture media consisted of standard filtered DMEM, FCS 10%, L-Glutamine 1% and PenStrep 1%. Basal assay plate was prepared by adding 750 μL of transport buffer to A-B wells. A CacoReadyTM plate was prepared by removing the Caco-2 media from the apical wells and replacing with fresh transport media (200 μL repeated for a total of 3 washes). Blank media (200 μL) was then replaced with diluted compound for A-B wells. To begin the incubation, the basal plate was removed from the incubator and the apical section was added on top of it. […] The permeation coefficient (Kp, mean A to B+Verapamil […]) in cm/sec was calculated as dQ (flux)/(dt×Area×concentration).

Row | SMILES | microsomal CLint at 0.1 μM (in vitro) [µL/min/mg] | Cacoverap Kp (Caco-2 cell monolayers) [×10⁻⁶ cm/s]
1 | CCS(=O)(=O)N1[C@@H]2CCC[C@H]1C[C@H](N(C)c1nc(COC(=O)C3CCOCC3)c(F)c(Nc3cc(C)[nH]n3)n1)C2 [Compound 7, (2-(((1R,3s,5S)-9-(ethylsulfonyl)-9-azabicyclo[3.3.1]nonan-3-yl)(methyl)amino)-5-fluoro-6-((5-methyl-1H-pyrazol-3-yl)amino)pyrimidin-4-yl)methyl tetrahydro-2H-pyran-4-carboxylate] | > 2500 | –
2 | CCS(=O)(=O)N1[C@@H]2CCC[C@H]1C[C@H](N(C)c1nc(COC(=O)OC3CCOCC3)c(F)c(Nc3cc(C)[nH]n3)n1)C2 [Compound 9, (2-(((1R,3s,5S)-9-(ethylsulfonyl)-9-azabicyclo[3.3.1]nonan-3-yl)(methyl)amino)-5-fluoro-6-((5-methyl-1H-pyrazol-3-yl)amino)pyrimidin-4-yl)methyl (tetrahydro-2H-pyran-4-yl) carbonate] | > 2500 | –
3 | CCS(=O)(=O)N1[C@@H]2CCC[C@H]1C[C@H](N(C)c1nc(CO)c(F)c(Nc3cc(C)[nH]n3)n1)C2 [Compound M, (2-(((1R,3s,5S)-9-(ethylsulfonyl)-9-azabicyclo[3.3.1]nonan-3-yl)(methyl)amino)-5-fluoro-6-((5-methyl-1H-pyrazol-3-yl)amino)pyrimidin-4-yl)methanol] | 132 | 42.3
